From patent US11524012B1, “Quinolone analogs and their salts, compositions, and method for their use” (Senhwa Biosciences, Inc., priority 2018, dated 2022)

Assay: Stability study of lyophilized Compound I with mannitol (Method A / Method B samples)
Format: physicochemical
Method: […] Each 30 mL Type I, clear glass sample vial with 20 mm Freeze Dry Stoppers (Flurotech™ coated) contained 150 mg of Compound I.
At each time point, a vial was removed from the stored condition and reconstituted with 10 mL of D5W and analyzed by HPLC method as discussed in Example 5 at 1 month, 2 months, 3 months, and/or 6 months. In Tables 18-18e, RRT matches the Compounds as shown below.
Sample Preparation—Method A: 10% Mannitol solution was prepared by weighing 200 g±1.0 g of mannitol into glass beaker, adding approximately 1500 mL of WFI (water for injection) to the beaker and stirring until mannitol was dissolved. The mannitol solution was transferred to a 2 L volumetric flask and made to volume with WFI, then poured back to the original beaker to sir and mix further. 1M HCl solution was prepared by adding 16.4 mL of HCl (37%) to a 200 mL volumetric flask containing approximately 100 mL of WFI, adding WFI to make 200 mL in volume, and inverting to mix the prepared solution.
To a tared 2 L Schott bottle containing a magnetic stirrer and wrapped in aluminum foil, 1020 g±1.0 g of the 10% mannitol solution was added. Then, 58.4 g±0.05 g of the 1M HCl solution was added to the 2 L Schott bottle and stirred for approximately 10 minutes. The solution prepared in the 2 L Schott bottle was purged with nitrogen which was continued throughout the manufacturing process. 30.22 g of Compound I (free base) was weighed then added to the 2 L Schott bottle containing 10% mannitol solution and 1 M HCl solution with continual magnetic stirring. The container used to weigh Compound I was rinsed with 3×10 mL of WFI and added to the Schott bottle. After Compound I dissolved (approximately 40 minutes), additional 650 g of WFI was added to the Schott bottle and the solution was stirred for approximately 10 minutes. The pH of the Compound I solution (in Schott bottle) was measured then adjusted to pH 4.5±0.1 using 1 M HCl solution. After each addition of 1 M HCl solution, the solution was stirred for several minutes prior to verifying the pH. Once the pH was adjusted, nitrogen purging was stopped. The pH adjusted Compound I solution was further diluted with WFI to a target weight of 2040 g±1.0 g and stirred.
The final solution (pH adjusted and diluted) was filtered (chain including PVD Fmembrane filter 0.45 μm and 0.22 μm; peristaltic filtration pump by Watson Marlow) in the Bigneat and the bottle containing the filtered solution was sealed. The filtered solution was pumped (Watson Marlow Flexicon PF6-B pump; 100 RPM) into 30 mL Schott Clear Glass vials (10.0 mL filtered solution each). The glass vials were partially stoppered with 20 mm Freeze Dry Stopper Flurotec (Daikyo Seiko) one vial at a time with sterilized utensils inside a fume hood (Envair B101+1.5R) and placed on freeze dryer trays. The freeze dryer trays were transferred into freeze dry chamber and vial probe was positioned (Lyostar II; FTS Kinetics). Lyophilization was performed using the lyophilization cycle listed below. After lyophilization cycle finished, the vials were back filled with N2 and the stopper was placed in situ, wiped down with isopropanol in the fume hood once removed from the freeze dryer, reconciled, then crimped. Seven vials out of 186 sample vials placed under the lyophilization cycle had smashed in the freeze dryer.
Sample Preparation—Method B (dissolved oxygen content ≤1 ppm): 2 L WFI was poured into a Schott bottled and degassed for 30 minutes with N2 until dissolved oxygen content was ≤1 ppm (dissolved oxygen meter and probe; Mettler Toledo). 10% Mannitol solution was prepared by adding […] of mannitol and 1000 mL of degassed WFI to a tared 2 L Schott bottle containing a magnetic stirrer and wrapped in aluminum foil. To the Schott bottle containing mannitol, 15 mL of 2M HCl was added and stirred for approximately 10 minutes. The resulting solution was sparged with N2 while stirring until dissolved oxygen content was ≤1 ppm (approx. 30 min). […]

[1] = Method A sample, 2-8° C./ambient % RH, 1 month
[2] = Method A sample, 2-8° C./ambient % RH, 2 months
[3] = Method A sample, 2-8° C./ambient % RH, 3 months
[4] = Method A sample, 2-8° C./ambient % RH, 6 months
[5] = Method A sample, 2-8° C./ambient % RH, 9 months
[6] = Method A sample, 2-8° C./ambient % RH, 12 months
[7] = Method A sample, 2-8° C./ambient % RH, 18 months
[8] = Method A sample, 2-8° C./ambient % RH, 24 months
[9] = Method A sample, 2-8° C./ambient % RH, 36 months
[10] = Method A sample, 2-8° C./ambient % RH, Initial
[11] = Method B sample, 5° C, 3 months
[12] = Method B sample, 5° C, 6 months

## Cc1cnc(CNC(=O)c2c(=O)c3ccc(N4CCCN(C)CC4)nc3n3c2sc2ccccc23)cn1 [Compound I, 2-(4-Methyl-[1,4]diazepan-1-yl)-5-oxo-5H-7-thia-1,11b-diaza-benzo[c]fluorene-6-carboxylic acid (5-methyl-pyrazin-2-ylmethyl)-amide]
[1]
  Appearance: White powder
  Appearance (Reconstituted Solution): Clear, colorless
  Compound I by HPLC assay: 101%
  Reconstitution Time: 54 s
  Related Substances RRT 0.83: RRT 0.83: 0.41%
  Related Substances RRT 0.88: RRT 0.88: 0.05%
  Related Substances RRT 0.95A: RRT 0.95A: 0.10%
  Related Substances RRT 0.95B: RRT 0.95B: 0.06%
  Related Substances RRT 1.05: RRT 1.05: 0.18%
  Related Substances RRT 1.08: RRT 1.08: 0.17%
  Related Substances Total: Total: 1.0%
  Water Content: 0.16%
  pH: 4.56
[2]
  Appearance: White powder
  Appearance (Reconstituted Solution): Clear, colorless
  Compound I by HPLC assay: 101%
  Reconstitution Time: 55 s
  Related Substances RRT 0.88: RRT 0.88: 0.06%
  Related Substances RRT 0.95B: RRT 0.95B: 0.06%
  Related Substances RRT 1.05: RRT 1.05: 0.17%
  Related Substances RRT 1.07: RRT 1.07: 0.15%
  Related Substances Total: Total: 0.4%
  Water Content: 0.20%
  pH: 4.51
[3]
  Appearance: White powder
  Appearance (Reconstituted Solution): Clear, colorless
  Compound I by HPLC assay: 102%
  Reconstitution Time: 41 s
  Related Substances RRT 0.88: RRT 0.88: 0.05%
  Related Substances RRT 0.95A: RRT 0.95A: 0.05%
  Related Substances RRT 0.95B: RRT 0.95B: 0.06%
  Related Substances RRT 0.96: RRT 0.96: 0.06%
  Related Substances RRT 1.05: RRT 1.05: 0.16%
  Related Substances RRT 1.07: RRT 1.07: 0.20%
  Related Substances Total: Total: 0.6%
  Water Content: 0.16%
  pH: 4.45
[4]
  Appearance: White powder
  Appearance (Reconstituted Solution): Clear, colorless
  Compound I by HPLC assay: 100%
  Related Substances RRT 0.88: RRT 0.88: 0.09%
  Related Substances RRT 0.89: RRT 0.89: 0.05%
  Related Substances RRT 0.95B: RRT 0.95B: 0.08%
  Related Substances RRT 0.96: RRT 0.96: 0.07%
  Related Substances RRT 1.05: RRT 1.05: 0.17%
  Related Substances RRT 1.07: RRT 1.07: 0.28%
  Related Substances Total: Total: 0.7%
  Water Content: 0.64%
  pH: 4.25
[5]
  Appearance: White powder
  Appearance (Reconstituted Solution): Clear, colorless
  Compound I by HPLC assay: 100%
  Related Substances RRT 0.88: RRT 0.88: 0.06%
  Related Substances RRT 0.95B: RRT 0.95B: 0.06%
  Related Substances RRT 0.96: RRT 0.96: 0.05%
  Related Substances RRT 0.97: RRT 0.97: 0.07%
  Related Substances RRT 1.05: RRT 1.05: 0.17%
  Related Substances RRT 1.07: RRT 1.07: 0.27%
  Related Substances Total: Total: 0.7%
  Water Content: 0.17%
  pH: 4.46
[6]
  Appearance: White powder
  Appearance (Reconstituted Solution): Clear, colorless
  Compound I by HPLC assay: 101%
  Related Substances RRT 0.88: RRT 0.88: 0.09%
  Related Substances RRT 0.89: RRT 0.89: 0.07%
  Related Substances RRT 0.95B: RRT 0.95B: 0.05%
  Related Substances RRT 0.96: RRT 0.96: 0.10%
  Related Substances RRT 0.97: RRT 0.97: 0.11%
  Related Substances RRT 1.05: RRT 1.05: 0.17%
  Related Substances RRT 1.07: RRT 1.07: 0.45%
  Related Substances Total: Total: 1.0%
  Water Content: 0.20%
  pH: 4.47
[7]
  Appearance: White powder
  Appearance (Reconstituted Solution): Clear, colorless
  Compound I by HPLC assay: 98%
  Related Substances RRT 0.88: RRT 0.88: 0.05%
  Related Substances RRT 0.95B: RRT 0.95B: 0.05%
  Related Substances RRT 0.96: RRT 0.96: 0.06%
  Related Substances RRT 0.97: RRT 0.97: 0.07%
  Related Substances RRT 1.04: RRT 1.04: 0.05%
  Related Substances RRT 1.05: RRT 1.05: 0.17%
  Related Substances RRT 1.07: RRT 1.07: 0.20%
  Related Substances Total: Total: 0.6%
  Water Content: 0.24%
  pH: 4.23
[8]
  Appearance: White powder
  Appearance (Reconstituted Solution): Clear, colorless
  Compound I by HPLC assay: 99%
  Related Substances RPT 0.88: RPT 0.88: 0.06%
  Related Substances RPT 0.95B: RPT 0.95B: 0.05%
  Related Substances RPT 0.96: RPT 0.96: 0.06%
  Related Substances RPT 0.97: RPT 0.97: 0.08%
  Related Substances RRT 0.89: RRT 0.89: 0.05%
  Related Substances RRT 1.05: RRT 1.05: 0.17%
  Related Substances RRT 1.07: RRT 1.07: 0.29%
  Related Substances Total: Total: 0.8%
  Water Content: 0.21%
  pH: 4.37
[9]
  Appearance: White powder
  Appearance (Reconstituted Solution): Clear, colorless
  Compound I by HPLC assay: 101%
  Related Substances RRT 0.88: RRT 0.88: 0.06%
  Related Substances RRT 0.96: RRT 0.96: 0.06%
  Related Substances RRT 0.97: RRT 0.97: 0.06%
  Related Substances RRT 1.05: RRT 1.05: 0.18%
  Related Substances RRT 1.07: RRT 1.07: 0.24%
  Related Substances Total: Total: 0.6%
  Water Content: 0.28%
  pH: 4.48
[10]
  Appearance: White powder
  Appearance (Reconstituted Solution): Clear, colorless
  Compound I by HPLC assay: 101.5%
  Related Substances RRT 1.05: RRT 1.05: 0.18%
  Related Substances RRT 1.06: RRT 1.06: 0.08%
  Related Substances RRT 1.08: RRT 1.08: 0.06%
  Related Substances Total: Total: 0.3%
  Water Content: 0.14%
  pH: 4.45
Method B sample, 5° C, 1 month
  Appearance: White powder
  Appearance (Reconstituted Solution): Clear, colorless
  Compound I by HPLC assay: 99.5%
  Reconstitution Time: 60 s
  Related Substances RRT 1.06: RRT 1.06: 0.16%
  Related Substances RRT 1.08: RRT 1.08: 0.06%
  Related Substances RRT 1.22: RRT 1.22: 0.05%
  Related Substances Total: Total: 0.3%
  Water Content USP<921 Method 1c>: 1.51%
  pH (USP<791>): 4.4
[11]
  Appearance: Off-white powder
  Appearance (Reconstituted Solution): Clear, colorless
  Compound I by HPLC assay: 101.2%
  Related Substances RRT 0.17: RRT 0.17: 0.05%
  Related Substances RRT 1.04: RRT 1.04: 0.08%
  Related Substances RRT 1.05: RRT 1.05: 0.19%
  Related Substances Total: Total: 0.3%
  Water Content USP<921 Method 1c>: 1.19%
  pH (USP<791>): 4.5
[12]
  Appearance: Off-white powder
  Appearance (Reconstituted Solution): Clear, colorless
  Compound I by HPLC assay: 100.7%
  Related Substances RRT 1.05: RRT 1.05: 0.13%
  Related Substances Total: Total: 0.1%
  Water Content USP<921 Method 1c>: 1.25%
  pH (USP<791>): 4.5
Method B sample, 5° C, Initial
  Appearance: White powder
  Appearance (Reconstituted Solution): Clear, colorless
  Compound I by HPLC assay: 100.2%
  Related Substances RRT 0.96: RRT 0.96: 0.05%
  Related Substances RRT 1.04: RRT 1.04: 0.05%
  Related Substances RRT 1.06: RRT 1.06: 0.17%
  Related Substances RRT 1.08: RRT 1.08: 0.06%
  Related Substances Total: Total:0.3%
  Water Content USP<921 Method 1c>: 1.12%
